Reference: patent publication US20240385177A1, “Screening Method Using Brown Adipocytes” (KATAOKA CORPORATION, priority 2021, published 2024)
Entries after “also recorded” stand apart in the source; their conditions may differ.

Test system: low-molecular-weight compound-induced brown adipocytes (ciBAs)
Experiment: Evaluation of browning tendency of ciBAs directly induced from human fibroblasts (Ucp1/Fabp4/Cidea expression, UCP1 protein, induction efficiency, mtDNA, OCR)
Assay type: cell-based
Settings: human fibroblasts cultured 3 weeks
Procedure: The human fibroblasts used as material were purchased from DS Pharma Biomedical, Co., Ltd. The fibroblasts are derived from human skin. The above human fibroblasts were seeded in 35 mm dishes coated with gelatin (Cat #: 190-15805, manufactured by FUJIFILM Wako Pure Chemical Co.) at 5×10^4, and cultured in DMEM medium (Cat #: 11965092; manufactured by Gibco) supplemented with 10% fetal bovine serum (FBS), 100 U/mL penicillin, 100 μg/mL streptomycin until 80% to 90% confluency at 37° C., 5% CO2.
Then, after the human fibroblasts reached 80 to 90% confluency, the medium in the dish was replaced with the serum-free brown adipocyte-inducing medium “SFBAM” described below, and the human fibroblasts were cultured in SFBAM for 3 weeks. To induce ciBA, SFBAM was further supplemented with rosiglitazone (selective PPARγ agonist; 184-02651, manufactured by FUJIFILM Wako Pure Chemical Corporation) at a final concentration of 1 μmol/L, forskolin (cAMP inducer; 063-02193) at a final concentration of 7.5 μmol/L and BMP7 (bone morphogenetic protein; 026-19171, manufactured by FUJIFILM Wako Pure Chemical Corporation) at a final concentration of 20 ng/mL, and human fibroblasts were cultured for 3 weeks. Separately, capsaicin (TRPV1 agonist; 030-11353, manufactured by FUJIFILM Wako Pure Chemical Corporation) and/or nonivamide (TRPV1 agonist; sc-202735, Santa Cruz Biotechnology (manufactured by Santa Cruz Biotechnology, CA, USA), capsazepine (TRPV1 antagonist; 037-23171, manufactured by FUJIFILM Wako Pure Chemical Corporation), AMG9810 (TRPV1 antagonist; 015-25071, FUJIFILM Wako Pure Chemical Corporation), GSK1016790A (TRPV4 agonist; G0798, manufactured by Sigma-Aldrich) were added and human fibroblasts were cultured for 3 weeks. Medium was changed every 3 days.
SFBAM is a serum-free brown adipocyte-inducing medium prepared by adding each ingredient in Table 1 to DMEM medium (Cat #: 11965092; manufactured by Gibco).
To quantify gene expression, total RNA was extracted from fibroblasts treated with each compound using the FastGene (registered trademark) RNA basic kit (manufactured by Nippon Genetics). As a control, fibroblasts were cultured in parallel using SFBAM and total RNA was extracted from compound-induced brown adipocytes and control cells. After reverse transcription by ReverTraAce (registered trademark) PCR RT Master Mix with gDNA Remover (manufactured by Toyobo), Real-time PCR analysis was performed using Power SYBR Green PCR Master Mix (manufactured by Thermo Fisher Scientific). Three reactions were performed per level under the following conditions. • After 10 minutes at 95° C., • The cycle time is 15 seconds at 95° C., followed by 60 seconds at 60° C., for 40 cycles.
All results were standardized by the amount of Tbp mRNA.
Immunocytochemistry was performed as previously reported (Dai P, et al. J Clin Biochem Nutr. 2015; 56(3): 166-70). First, cells were fixed with 4% paraformaldehyde (manufactured by Nacalai Tesque). After washed with phosphate-buffered saline (PBS) three times, the cells were incubated with PBS containing 0.1% Triton X-100 for 10 minutes. The cells were then blocked with PBS containing 3% skim milk for 1hour at room temperature. UCP-1 antibodies (ab10983, manufactured by Abcam, Cambridge, UK) were diluted 1/500 with the blocking solutions. The cells were incubated with the antibodies overnight at 4° C. […] All images were acquired using a fluorescence microscopy (BZ-X710-All-in-One Fluorescence Microscope, manufactured by Keyence). […]

[1] = TRPV1 antagonist added to culture with RoFB and capsaicin (25 μmol/L), FIGS. 8, 9
[2] = compound added to SFBAM with rosiglitazone, forskolin and BMP7 (RoFB), FIGS. 1-7, 10-12

| Compound | browning tendency of ciBAs [1] | browning tendency of ciBAs [2] |
| --- | --- | --- |
| CC(C)(C)c1ccc(/C=C/C(=O)Nc2ccc3c(c2)OCCO3)cc1 [AMG9810] | suppressed the browning tendency | – |
| CC(C)C[C@H](NC(=O)c1cc2ccccc2s1)C(=O)N1CCN(C(=O)[C@H](CO)NS(=O)(=O)c2ccc(Cl)cc2Cl)CC1 [GSK1016790A] | – | suppressed; also recorded: inhibits adipocyte browning |
| COc1cc(CNC(=O)CCCC/C=C/C(C)C)ccc1O [capsaicin] | – | enhanced; also recorded: promotes adipocyte browning |
| Oc1cc2c(cc1O)CN(C(=S)NCCc1ccc(Cl)cc1)CCC2 [capsazepine] | suppressed the browning tendency | – |
| CCCCCCCCC(=O)NCc1ccc(O)c(OC)c1 [nonivamide] | – | increased the browning tendency |
